One data set has as its system EpiAirway. Description: Insulin tissue permeation across EpiAirway, ELISA. The format is in vitro ADME. The note with it: in vitro study 3; Tween-containing formulations.
Data set [1] in a line: Rabbit pharmacokinetics (serum insulin) after IN, SC, IV or oral insulin. The format is in vivo, ニュージーランド白色ラビット. The note with it: PK study 2.
A further data set deals with 黄色ブドウ球菌、クロカビ、緑膿菌. Description: Antimicrobial effectiveness test (AET), USP and EP requirements. As to conditions: for AET result against EP requirements / AET result against USP requirements: insulin nasal spray formulations (placebo or active); for Preservative / antimicrobial effectiveness: in insulin nasal spray formulations, neutral pH.
A short description of data set [2]: Compatibility of preservative with insulin (precipitation). The note with it: presence in formulation caused insulin precipitation. Type of data set: physicochemical.
The next data set concerns グルコース. Description: Human PD clinical study, glucose by glucometer. The note with it: intranasal administration. The format is in vivo, ヒト.

Turning to `CCCCCCCCCC(=O)OC[C@H](COP(=O)([O-])OCC[N+](C)(C)C)OC(=O)CCCCCCCCC` [DDPC, L−α−ホスファチジルコリンジデカノイル], in the data set with EpiAirway, the “Effect of removing the excipient from the formulation on insulin permeation” value was “影響を有しなかった”. Besides, the “Effect of removing DDPC on BA(%), Cmax and AUClast” value in data set [1] is listed as “減少した”. As for `O=C([O-])CN(CCN(CC(=O)[O-])CC(=O)O)CC(=O)O.[Na+].[Na+]` [EDTA, エデト酸二ナトリウム], in the data set on 黄色ブドウ球菌、クロカビ、緑膿菌, the “AET result against EP requirements” value is recorded as “有効であるとは思われなかった” and the “AET result against USP requirements” value is given as “有効であるとは思われなかった”. For `Cc1cccc(O)c1` [m−クレゾール], in the data set with 黄色ブドウ球菌、クロカビ、緑膿菌, the “Preservative / antimicrobial effectiveness” value is given as “有効な防腐剤ではなかった”. The same measure, in the same setting: the result for `CC(C)CC(N)B(O)O` (stereo not drawn) [ベンジルアルコール] reads “有効な防腐剤ではなかった and 無効”.

Take `CC(C)CC(N)B(O)O` (stereo not drawn) [塩化ベンズアルコニウム]: in the data set with 黄色ブドウ球菌、クロカビ、緑膿菌, the “Preservative / antimicrobial effectiveness” value is “最良の抗菌性能”, the “AET result against EP requirements” value is “優れた防腐剤” and the “AET result against USP requirements” value is “優れた防腐剤”. Further, in data set [2], the Compatibility with insulin entry was “不適合性”. With `CC(C)CC(N)B(O)O` (stereo not drawn) [安息香酸ナトリウム], the “Preservative / antimicrobial effectiveness” value in the data set with 黄色ブドウ球菌、クロカビ、緑膿菌 is recorded as “有効な防腐剤ではなかった”. Regarding “インスリン: recombinant native-sequence human insulin”, the “Reduction of glucose (%) in patients” value in the data set on グルコース is “有効”.

These data come from JP2009512709A, “速効型インスリンの経鼻投与” (エムディーアールエヌエー，インコーポレイテッド, priority 2005, dated 2007).
